Where no end group is shown, it is not given here. The star is where a group is joined. Octanoyl = CCCCCCCC(=O)*
What was measured:
[1] = molecular target: GHS-R (Homo sapiens, UniProt Q92847); test: GHS-R antagonist activity, cell based assay (Table 3); conditions: GHS-R antagonist activity in a cell based assay
[2] = test system: oxidative burst in inflammatory cells; test: Oxidative burst (ROS) in inflammatory cells from brain tissue after mild brain injury (controlled cortical impact); type: in vivo; conditions: C57/B6 mice, mild BI by controlled cortical impactor, subcutaneous treatment, leukocytes isolated from brain tissue, DHR 123 flow cytometry, compared to mBI
Experimental: Ghrelin variant administration reduces oxidative burst in inflammatory cells following mild BI. Since no well-accepted animal model exists for concussions, a very small cerebral lesion that closely mimics mild BI is used as a model of mild BI. C57/B6 mice anesthetized with 5% isoflurane in oxygen (1.7 L/min) are given 0.3 mg/kg buprenorphine subcutaneously for analgesia prior to infliction of the mild brain injury. Anesthesia is assessed by paw pinch reflex. After creating a burr hole through the dura with a dental drill, a lesion using a controlled cortical impactor (CCI) is used to create injury 1 mm lateral and posterior to the bregma (5.0 mm/sec at a depth of 1.0 mm).
Animals are separated into three treatment groups: 1) Sham, 2) mild BI, and 3) mild BI plus ghrelin variant. A variety of doses can be tested depending upon the particular ghrelin variant. For example, 1 to 50 μg at one or more time points. As one example, treatment with subcutaneous ghrelin variant: 1 dose of 10 μg following mild BI and additional dose 10 μg 1 hour after. […] The fluorescence is then measured (AFU), higher intensity means greater oxidative burst and, therefore greater concentration or amount of ROS. […] Oxidative burst, which is a marker for ROS, can be measured by respiratory burst using flow cytometry (e.g., FL1 channel with 488-nm laser).

Sequence of GHS-R (Q92847 whole entry): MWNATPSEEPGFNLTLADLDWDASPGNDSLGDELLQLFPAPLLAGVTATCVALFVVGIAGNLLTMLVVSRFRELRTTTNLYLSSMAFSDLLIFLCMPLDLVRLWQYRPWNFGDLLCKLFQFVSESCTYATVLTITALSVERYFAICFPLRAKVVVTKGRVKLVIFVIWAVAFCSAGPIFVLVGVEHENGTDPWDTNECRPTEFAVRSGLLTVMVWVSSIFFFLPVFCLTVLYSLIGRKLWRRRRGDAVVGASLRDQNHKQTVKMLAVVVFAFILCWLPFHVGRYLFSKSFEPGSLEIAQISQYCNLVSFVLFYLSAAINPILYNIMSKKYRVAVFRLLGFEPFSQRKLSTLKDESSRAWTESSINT

CCN(CC)CCCS(=O)(=O)N[C@H](CCc1ccccc1)c1nc(-c2cncn2C)n[nH]1 [Compound 135]
Ki [1]: < 0.1 µM

ghrelin (GSS(Octanoyl)FLSPEHQRVQQRKESKKPPAKLQPR)
oxidative burst in inflammatory cells following mBI, quantified by arbitrary fluorescence unit (AFU) [2]: reduced the oxidative burst compared to mBI

Source: patent publication US20180071367A1, “METHODS OF TREATING COGNITIVE IMPAIRMENTS OR DYSFUNCTION” (Oxeia Biopharmaceuticals, Inc., priority 2015, published 2018)
